According to patent publication US20260130395A1, “Water Dispersible Botanical Compositions” (Aquila Black Limited, priority 2021, published 2026):

Legend:
[1] = Stability of cannabinoid compounds and Vitamin E components in Beverage 1 (AB White) by LCMSMS; assay type: physicochemical; conditions: AB White stored at 21-25° C.
[2] = Stability of cannabinoid entourage and Vitamin E components of the powder concentrate by LCMSMS; assay type: physicochemical; conditions: powder stored at 21-25° C.
Method: At each time period, 0.05 g of powder was dissolved in 10 ml-15 of ethanol, diluted to fall within the analytical range, and injected into the LCMSMS for analysis.

SMILES: CCCCCc1cc2c(c(O)c1C(=O)O)[C@@H]1C=C(C)CC[C@H]1C(C)(C)O2 [D9 THCA, delta-9-tetrahydrocannabinolic acid]
- Stability of Plant-Derived Cannabinoid Compounds in AB White, 21-25° C. ([1]; 29 days): 0.922 µg/mL
- Stability of Plant-Derived Cannabinoid Compounds in AB White, 21-25° C. ([1]; 30 days): 0.934 µg/mL
- Stability of Plant-Derived Cannabinoid Compounds in AB White, 21-25° C. ([1]; 60 days): 0.896 µg/mL
- Stability of Plant-Derived Cannabinoid Compounds in AB White, 21-25° C. ([1]; 90 days): 0.892 µg/mL
- Stability of Plant-Derived Cannabinoid Compounds in AB White, 21-25° C. ([1]; 120 days): 0.894 µg/mL
- Stability of Plant-Derived Cannabinoid Compounds in AB White, 21-25° C. ([1]; 150 days): 0.934 µg/mL
- Stability of Plant-Derived Cannabinoid Compounds in AB White, 21-25° C. ([1]; 180 days): 0.945 µg/mL
- Stability of Plant-Derived Cannabinoid Compounds in AB White, 21-25° C. ([1]; 210 days): 0.913 µg/mL
- Stability of Plant-Derived Cannabinoid Compounds in AB White, 21-25° C. ([1]; 240 days): 0.892 µg/mL
- Stability of Plant-Derived Cannabinoid Compounds in AB White, 21-25° C. ([1]; 270 days): 0.905 µg/mL
- Stability of Plant-Derived Cannabinoid Compounds in AB White, 21-25° C. ([1]; 300 days): 0.888 µg/mL
- Stability of Plant-Derived Cannabinoid Compounds in AB White, 21-25° C. ([1]; 330 days): 0.894 µg/mL
- Stability of Plant-Derived Cannabinoid Compounds in AB White, 21-25° C. ([1]; 360 days): 0.925 µg/mL
- Stability of Plant-Derived Cannabinoid Compounds in AB White, 21-25° C. ([1]; 390 days): 0.907 µg/mL
- Stability of Plant-Derived Cannabinoid Compounds in AB White, 21-25° C. ([1]; 420 days): 0.909 µg/mL
- Stability of Plant-Derived Cannabinoid Compounds in AB White, 21-25° C. ([1]; 450 days): 0.921 µg/mL
- Stability of Plant-Derived Cannabinoid Compounds in AB White, 21-25° C. ([1]; 480 days): 0.873 µg/mL
- Stability of Plant-Derived Cannabinoid Compounds in AB White, 21-25° C. ([1]; 510 days): 0.903 µg/mL
- Stability of Plant-Derived Cannabinoid Compounds in AB White, 21-25° C. ([1]; 540 days): 0.877 µg/mL
- Stability of Plant-Derived Cannabinoid Compounds in AB White, 21-25° C. ([1]; 570 days): 0.877 µg/mL
- Stability of Plant-Derived Cannabinoid Compounds in Powder Concentrate ([2]; 0 days): 0.150 mg/g powder
- Stability of Plant-Derived Cannabinoid Compounds in Powder Concentrate ([2]; 1 days): 0.150 mg/g powder
- Stability of Plant-Derived Cannabinoid Compounds in Powder Concentrate ([2]; 2 days): 0.147 mg/g powder
- Stability of Plant-Derived Cannabinoid Compounds in Powder Concentrate ([2]; 3 days): 0.150 mg/g powder
- Stability of Plant-Derived Cannabinoid Compounds in Powder Concentrate ([2]; 5 days): 0.146 mg/g powder
- Stability of Plant-Derived Cannabinoid Compounds in Powder Concentrate ([2]; 8 days): 0.156 mg/g powder
- Stability of Plant-Derived Cannabinoid Compounds in Powder Concentrate ([2]; 9 days): 0.151 mg/g powder
- Stability of Plant-Derived Cannabinoid Compounds in Powder Concentrate ([2]; 10 days): 0.148 mg/g powder
- Stability of Plant-Derived Cannabinoid Compounds in Powder Concentrate ([2]; 11 days): 0.145 mg/g powder
- Stability of Plant-Derived Cannabinoid Compounds in Powder Concentrate ([2]; 12 days): 0.152 mg/g powder
- Stability of Plant-Derived Cannabinoid Compounds in Powder Concentrate ([2]; 15 days): 0.151 mg/g powder
- Stability of Plant-Derived Cannabinoid Compounds in Powder Concentrate ([2]; 16 days): 0.157 mg/g powder
- Stability of Plant-Derived Cannabinoid Compounds in Powder Concentrate ([2]; 17 days): 0.156 mg/g powder
- Stability of Plant-Derived Cannabinoid Compounds in Powder Concentrate ([2]; 18 days): 0.149 mg/g powder
- Stability of Plant-Derived Cannabinoid Compounds in Powder Concentrate ([2]; 19 days): 0.146 mg/g powder
- Stability of Plant-Derived Cannabinoid Compounds in Powder Concentrate ([2]; 22 days): 0.150 mg/g powder
- Stability of Plant-Derived Cannabinoid Compounds in Powder Concentrate ([2]; 23 days): 0.147 mg/g powder
- Stability of Plant-Derived Cannabinoid Compounds in Powder Concentrate ([2]; 24 days): 0.150 mg/g powder
- Stability of Plant-Derived Cannabinoid Compounds in Powder Concentrate ([2]; 25 days): 0.150 mg/g powder
- Stability of Plant-Derived Cannabinoid Compounds in Powder Concentrate ([2]; 26 days): 0.150 mg/g powder
- Stability of Plant-Derived Cannabinoid Compounds in Powder Concentrate ([2]; 29 days): 0.152 mg/g powder
- Stability of Plant-Derived Cannabinoid Compounds in Powder Concentrate ([2]; 30 days): 0.151 mg/g powder
- Stability of Plant-Derived Cannabinoid Compounds in Powder Concentrate ([2]; 60 days): 0.146 mg/g powder
- Stability of Plant-Derived Cannabinoid Compounds in Powder Concentrate ([2]; 90 days): 0.147 mg/g powder
- Stability of Plant-Derived Cannabinoid Compounds in Powder Concentrate ([2]; 120 days): 0.147 mg/g powder
- Stability of Plant-Derived Cannabinoid Compounds in Powder Concentrate ([2]; 150 days): 0.153 mg/g powder
- Stability of Plant-Derived Cannabinoid Compounds in Powder Concentrate ([2]; 180 days): 0.154 mg/g powder
- Stability of Plant-Derived Cannabinoid Compounds in Powder Concentrate ([2]; 210 days): 0.151 mg/g powder
- Stability of Plant-Derived Cannabinoid Compounds in Powder Concentrate ([2]; 240 days): 0.148 mg/g powder
- Stability of Plant-Derived Cannabinoid Compounds in Powder Concentrate ([2]; 270 days): 0.148 mg/g powder
- Stability of Plant-Derived Cannabinoid Compounds in Powder Concentrate ([2]; 300 days): 0.156 mg/g powder
- Stability of Plant-Derived Cannabinoid Compounds in Powder Concentrate ([2]; 330 days): 0.156 mg/g powder
- Stability of Plant-Derived Cannabinoid Compounds in Powder Concentrate ([2]; 360 days): 0.155 mg/g powder
- Stability of Plant-Derived Cannabinoid Compounds in Powder Concentrate ([2]; 390 days): 0.153 mg/g powder
- Stability of Plant-Derived Cannabinoid Compounds in Powder Concentrate ([2]; 420 days): 0.154 mg/g powder
- Stability of Plant-Derived Cannabinoid Compounds in Powder Concentrate ([2]; 450 days): 0.155 mg/g powder
- Stability of Plant-Derived Cannabinoid Compounds in Powder Concentrate ([2]; 480 days): 0.149 mg/g powder
- Stability of Plant-Derived Cannabinoid Compounds in Powder Concentrate ([2]; 510 days): 0.154 mg/g powder
- Stability of Plant-Derived Cannabinoid Compounds in Powder Concentrate ([2]; 540 days): 0.154 mg/g powder
- Stability of Plant-Derived Cannabinoid Compounds in Powder Concentrate ([2]; 570 days): 0.148 mg/g powder
